Laboratory results taken from patent publication US20260347338A1, “PYRIMIDINE/PYRIDINE DERIVATIVES OR SALTS THEREOF AND PHARMACEUTICAL COMPOSITIONS COMPRISING THE SAME” (YUHAN CORPORATION, priority 2023, published 2026).
Where a name gives a salt, the structure may show the parent alone.

Target: T1, human recombinant HPK1 (Homo sapiens, UniProt Q92918)
T1 construct: purchased BPS Bioscience
Assay: Inhibitory activity against human recombinant HPK1 (TR-FRET)
Format: biochemical
Settings: ULight-p70S6K peptide, ATP at Km, room temperature, 1 hour, 0.32 to 1000 nM compound
Description: Test Example: Evaluation of Inhibitory Activity Against Human Recombinant HPK1
The inhibitory activity against human recombinant HPK1 was evaluated using the Time-Resolved Fluorescence Resonance Energy Transfer (TR-FRET) technology of Perkin-Elmer. The test compound was prepared as a 20 mM stock solution with dimethyl sulfoxide (DMSO), serially diluted in a buffer solution, and used at final compound concentrations of 0.32 to 1000 nM. The evaluation of inhibitory activity was carried out at room temperature, using recombinant human HPK1 (BPS Bioscience). Briefly, recombinant human HPK1, serially diluted each test compound, ULight-p70S6K peptide substrate (PerkinElmer), and ATP at each concentration (Km and final concentration) were added to a kinase buffer solution (50 mM HEPES pH 7.4, 10 mM MgCl2, 1 mM EGTA, 3 mM MnCl2, 2 mM DTT, and 0.01% Tween-20). The resulting mixture was added to each well of a 384-well plate (Optiplate™ 384, white, PerkinElmer). The enzyme reaction was carried out at room temperature for 1 hour. After the reaction was suspended by adding 4 μL of a stop solution (10 mM EDTA) thereto, the mixture was stirred for 1 minute and then a detection solution containing Europium-labeled anti-phosphopeptide antibody (final concentration: 2 nM, PerkinElmer) was added thereto. The signals of TR-FRET at excitation wavelength (320 nm) and emission wavelength (665 nm) were detected using a microplate reader (Envision Multilabel Reader, Perkin-Elmer). Inhibition by the test compound was measured as % inhibition in the signals, compared to the control group treated with DMSO only. The IC50 value of each compound was calculated using the GraphPad Prism program (GraphPad Software, Inc., San Diego, CA, USA). The IC50 values of test compounds for inhibitory activity against HPK1 were classified as follows: • A: IC50≤10 nM • B: 10 nM<IC50≤50 nM • C: 50 nM<IC50≤100 nM • D: IC50>100 nM

T1 sequence (Q92918 whole entry): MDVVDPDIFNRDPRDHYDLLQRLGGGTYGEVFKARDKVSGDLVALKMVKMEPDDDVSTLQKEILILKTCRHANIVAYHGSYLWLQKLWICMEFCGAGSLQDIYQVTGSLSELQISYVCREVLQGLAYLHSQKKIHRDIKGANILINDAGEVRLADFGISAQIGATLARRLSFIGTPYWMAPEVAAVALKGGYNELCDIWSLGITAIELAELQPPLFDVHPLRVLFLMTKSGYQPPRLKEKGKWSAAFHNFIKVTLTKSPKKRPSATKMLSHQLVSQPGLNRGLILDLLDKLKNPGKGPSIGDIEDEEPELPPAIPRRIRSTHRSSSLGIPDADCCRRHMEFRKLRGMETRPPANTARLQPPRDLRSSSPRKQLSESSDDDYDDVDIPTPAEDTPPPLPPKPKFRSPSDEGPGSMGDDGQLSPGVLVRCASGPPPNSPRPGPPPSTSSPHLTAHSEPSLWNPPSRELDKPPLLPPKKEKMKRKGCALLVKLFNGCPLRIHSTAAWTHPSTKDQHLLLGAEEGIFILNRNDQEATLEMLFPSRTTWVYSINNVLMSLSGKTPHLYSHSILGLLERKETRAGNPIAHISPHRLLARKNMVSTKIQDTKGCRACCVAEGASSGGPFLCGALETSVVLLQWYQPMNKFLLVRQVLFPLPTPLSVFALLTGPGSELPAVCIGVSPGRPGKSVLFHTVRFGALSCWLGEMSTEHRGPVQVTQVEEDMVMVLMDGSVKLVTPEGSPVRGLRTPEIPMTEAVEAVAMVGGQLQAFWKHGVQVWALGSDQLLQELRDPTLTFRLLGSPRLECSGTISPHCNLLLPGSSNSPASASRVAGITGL

Row | Structure (SMILES) | IC50 [µM]
1 | COc1cc(F)cc(F)c1-c1nc(Nc2cc(N3CCC[C@H](O)C3)c(-c3cnn(C(F)F)c3)cn2)ccc1N [Example 184, (3S)-1-(2-((5-amino-6-(2,4-difluoro-6-methoxyphenyl)pyridin-2-yl)amino)-5-(1-(difluoromethyl)-1H-pyrazol-4-yl)pyridin-4-yl)piperidin-3-ol] | ≤ 0.01
2 | COc1cccc(F)c1-c1nccc(Nc2cc(N3CC[C@@H](N)[C@H](C)C3)c(-c3cnn(C(F)F)c3)cn2)n1 [Example 268, N-(4-((3R,4R)-4-amino-3-methylpiperidin-1-yl)-5-(1-(difluoromethyl)-1H-pyrazol-4-yl)pyridin-2-yl)-2-(2-fluoro-6-methoxyphenyl)pyrimidin-4-amine hydrochloride] | ≤ 0.01
3 | OCc1csc(-c2nccc(Nc3cc(N4CCC[C@H](O)C4)c(-c4cnn(C5CCOCC5)c4)cn3)n2)c1 [Example 21, (S)-1-(2-((2-(4-(hydroxymethyl)thiophen-2-yl)pyrimidin-4-yl)amino)-5-(1-(tetrahydro-2H-pyran-4-yl)-1H-pyrazol-4-yl)pyridin-4-yl)piperidin-3-ol] | 0.01 to 0.05
4 | COc1cccc(F)c1-c1nc(Nc2cc(N3CCC[C@H](O)C3)c(-c3cnn(C4CCOCC4)c3)cn2)ccc1C(N)=O [Example 112, 2-(2-fluoro-6-methoxyphenyl)-6-((4-((S)-3-hydroxypiperidin-1-yl)-5-(1-(tetrahydro-2H-pyran-4-yl)-1H-pyrazol-4-yl)pyridin-2-yl)amino)nicotinamide] | ≤ 0.01
5 | N[C@H]1CCCN(c2cc(Nc3ccnc(-c4c(F)cccc4CO)n3)ncc2C#Cc2cnn(C(F)F)c2)C1 [Example 243, (S)-(2-(4-((4-(3-aminopiperidin-1-yl)-5-((1-(difluoromethyl)-1H-pyrazol-4-yl)ethynyl)pyridin-2-yl)amino)pyrimidin-2-yl)-3-fluorophenyl)methanol hydrochloride] | ≤ 0.01
6 | COc1cccc(F)c1-c1nccc(Nc2cc(N3CCC[C@H](N)C3)c(-c3ccc(C(=O)N4CCN(CCO)CC4)cc3)cn2)n1 [Example 288, (S)-(4-(4-(3-aminopiperidin-1-yl)-6-((2-(2-fluoro-6-methoxyphenyl)pyrimidin-4-yl)amino)pyridin-3-yl)phenyl)(4-(2-hydroxyethyl)piperazin-1-yl)methanone hydrochloride] | ≤ 0.01
7 | COc1cccc(F)c1-c1nccc(Nc2cc(N3CCC(CO)(CC(F)F)CC3)c(-c3cnn(C4CCOCC4)c3)cn2)n1 [Example 47, (4-(2,2-difluoroethyl)-1-(2-((2-(2-fluoro-6-methoxyphenyl)pyrimidin-4-yl)amino)-5-(1-(tetrahydro-2H-pyran-4-yl)-1H-pyrazol-4-yl)pyridin-4-yl)piperidin-4-yl)methanol] | ≤ 0.01
8 | COc1cccc(F)c1-c1nccc(Nc2cc(N3CCC[C@H](N)C3)c(-c3cn(C)nc3C(F)(F)F)cn2)n1 [Example 131, (S)-N-(4-(3-aminopiperidin-1-yl)-5-(1-methyl-3-(trifluoromethyl)-1H-pyrazol-4-yl)pyridin-2-yl)-2-(2-fluoro-6-methoxyphenyl)pyrimidin-4-amine hydrochloride] | 0.05 to 0.1
9 | COc1cc(F)cc(F)c1-c1nccc(Nc2cc(N3C[C@@H](N)C[C@H](F)C3)c(-c3cnn(C(C)C)c3)cn2)n1 [Example 336, N-(4-((3S,5S)-3-amino-5-fluoropiperidin-1-yl)-5-(1-isopropyl-1H-pyrazol-4-yl)pyridin-2-yl)-2-(2,4-difluoro-6-methoxyphenyl)pyrimidin-4-amine] | ≤ 0.01
10 | COc1cc(F)cc(F)c1-c1nccc(Nc2cc(N3CCC[C@H](O)C3)c(-c3cnn(C(F)F)c3)cn2)n1 [Example 182, (S)-1-(2-((2-(2,4-difluoro-6-methoxyphenyl)pyrimidin-4-yl)amino)-5-(1-(difluoromethyl)-1H-pyrazol-4-yl)pyridin-4-yl)piperidin-3-ol] | ≤ 0.01
11 | CCNC(=O)Nc1ccc(-c2cnc(Nc3ccnc(-c4c(F)cccc4OC)n3)cc2N2CCC[C@H](N)C2)cn1 [Example 250, (S)-1-(4′-(3-aminopiperidin-1-yl)-6′-((2-(2-fluoro-6-methoxyphenyl)pyrimidin-4-yl)amino)-[3,3′-bipyridin]-6-yl)-3-ethylurea hydrochloride] | ≤ 0.01
12 | COc1cccc(F)c1-c1nccc(Nc2cc(N3CCC[C@H](N)C3)c(-c3cnn(C4CC(C)(C)OC(C)(C)C4)c3)cn2)n1 [Example 269, (S)-N-(4-(3-aminopiperidin-1-yl)-5-(1-(2,2,6,6-tetramethyltetrahydro-2H-pyran-4-yl)-1H-pyrazol-4-yl)pyridin-2-yl)-2-(2-fluoro-6-methoxyphenyl)pyrimidin-4-amine hydrochloride] | ≤ 0.01
13 | COc1cccc(F)c1-c1nccc(Nc2cc(N3CCC[C@H](N)C3)c(-c3ccc4c(c3)OCCN4C)cn2)n1 [Example 257, (S)-N-(4-(3-aminopiperidin-1-yl)-5-(4-methyl-3,4-dihydro-2H-benzo[b][1,4]oxazin-7-yl)pyridin-2-yl)-2-(2-fluoro-6-methoxyphenyl)pyrimidin-4-amine hydrochloride] | ≤ 0.01
14 | COc1cccc(F)c1-c1nc(Nc2cc(N3CCC[C@H](O)C3)c(C(=O)N[C@@H]3CC[C@@H](N)C3)cn2)ccc1[N+](=O)[O-] [Example 199, N-((1R,3R)-3-aminocyclopentyl)-6-((6-(2-fluoro-6-methoxyphenyl)-5-nitropyridin-2-yl)amino)-4-((S)-3-hydroxypiperidin-1-yl)nicotinamide hydrochloride] | ≤ 0.01
15 | COc1cccc(F)c1-c1nc(Nc2cc(N3CCC[C@H](O)C3)c(-c3cnn(C4CCOCC4)c3)cn2)ccc1C(=O)N(C)C [Example 113, 2-(2-fluoro-6-methoxyphenyl)-6-((4-((S)-3-hydroxypiperidin-1-yl)-5-(1-(tetrahydro-2H-pyran-4-yl)-1H-pyrazol-4-yl)pyridin-2-yl)amino)-N,N-dimethylnicotinamide] | 0.01 to 0.05
16 | COc1cccc(F)c1-c1nccc(Nc2cc(N3CC[C@H](F)[C@H](N)C3)c(-c3cnn(C(F)F)c3)cn2)n1 [Example 207, N-(4-((3R,4S)-3-amino-4-fluoropiperidin-1-yl)-5-(1-(difluoromethyl)-1H-pyrazol-4-yl)pyridin-2-yl)-2-(2-fluoro-6-methoxyphenyl)pyrimidin-4-amine hydrochloride] | ≤ 0.01
17 | COc1cc(F)cc(F)c1-c1nc(Nc2cc(N3CCC[C@H](N)C3)c(-c3cnn(C4CCOCC4)c3)cn2)ccc1C#N [Example 309, 6-((4-((S)-3-aminopiperidin-1-yl)-5-(1-(tetrahydro-2H-pyran-4-yl)-1H-pyrazol-4-yl)pyridin-2-yl)amino)-2-(2,4-difluoro-6-methoxyphenyl)nicotinonitrile hydrochloride] | ≤ 0.01
18 | COc1cccc(F)c1-c1nc(Nc2cc(N3CCC[C@H](O)C3)c(C(=O)N[C@@H]3CC[C@@H](O)C3)cn2)ccc1[N+](=O)[O-] [Example 194, 6-((6-(2-fluoro-6-methoxyphenyl)-5-nitropyridin-2-yl)amino)-N-((1R,3R)-3-hydroxycyclopentyl)-4-((S)-3-hydroxypiperidin-1-yl)nicotinamide] | ≤ 0.01
19 | COc1cccc(F)c1-c1nc(Nc2cc(N3CCC[C@H](N)C3)c(-c3cnn(CC(F)(F)F)c3)cn2)ccc1[N+](=O)[O-] [Example 153, 4-((S)-3-aminopiperidin-1-yl)-N-(6-(2-fluoro-6-methoxyphenyl)-5-nitropyridin-2-yl)-5-(1-(2,2,2-trifluoroethyl)-1H-pyrazol-4-yl)pyridin-2-amine hydrochloride] | ≤ 0.01
